Experimental data as given in PMC3335078, “Length and Amino Acid Sequence of Peptides Substituted for the 5-HT3A Receptor M3M4 Loop May Affect Channel Expression and Desensitization” (PLoS ONE, 2012).

Tests used:
Assay type in all cases: cell-based
[1] = molecular target: T1, 5-HT3A M3M4 loop GSA mutant (Mus musculus, UniProt P23979, DELINS338-452GSA); assay: Two-electrode voltage clamp, oocytes expressing GSA M3M4 mutant; conditions: 10 µM 5-HT, Xenopus oocytes
T1 construct: expressed in transfected cells; host or cells: Xenopus laevis oocytes injected with mRNA
Description: (§1) The mouse 5-HT3A cDNA with an N-terminal V5 epitope tag was cloned into the pXOON vector as previously described, and is referred to in this paper as “wild-type” (WT). The starting construct for all of the M3M4 loop replacement constructs used in this work was the 5-HT3A-ΔM3M4 construct formed by splicing the cytoplasmic end of M3 (M3-LVHK/QDLQRP…) to the cytoplasmic end of M4 (…WLRVGY/VLDRLL-M4). The splice was made at the site of the “/” to yield the sequence M3-LVHK/VLDRLL-M4 [34]. This removed 115 residues predicted to form the M3M4 loop.
(§2) The construction of the 5-HT3A-glvM3M4 chimera with the 5-HT3A M3M4 loop replaced by the GLIC heptapeptide M3M4 loop (SQPARAA) was described previously. Point mutations, alanine and Gly-Ser-Ala insertions into the 5-HT3A-ΔM3M4 construct were generated with the Quikchange site directed mutagenesis procedure (Stratagene, La Jolla, CA). […]
(§3) Currents were recorded under two-electrode voltage clamp from oocytes 2–5 d post-injection as described previously. […]
(§4) Desensitization rates were determined by fitting a single exponential decay function to the current data with Prism 4 software (GraphPad Software). Significant differences compared with wild-type were determined by a one-way ANOVA (p<0.05) using Dunnett's multiple comparison post-hoc test (p<0.05). […]

[2] = molecular target: T2, 5-HT3A-A1 (M3M4 loop replaced by one alanine) (Mus musculus, UniProt P23979, DELINS338-452A); assay: Two-electrode voltage clamp, oocytes expressing 5-HT3A-A1
T2 construct: expressed in transfected cells; host or cells: Xenopus laevis oocytes injected with mRNA
T2 sequence (P23979 with tags, fused parts or gaps isoform P23979-2 DELINS338-452A limits assumed): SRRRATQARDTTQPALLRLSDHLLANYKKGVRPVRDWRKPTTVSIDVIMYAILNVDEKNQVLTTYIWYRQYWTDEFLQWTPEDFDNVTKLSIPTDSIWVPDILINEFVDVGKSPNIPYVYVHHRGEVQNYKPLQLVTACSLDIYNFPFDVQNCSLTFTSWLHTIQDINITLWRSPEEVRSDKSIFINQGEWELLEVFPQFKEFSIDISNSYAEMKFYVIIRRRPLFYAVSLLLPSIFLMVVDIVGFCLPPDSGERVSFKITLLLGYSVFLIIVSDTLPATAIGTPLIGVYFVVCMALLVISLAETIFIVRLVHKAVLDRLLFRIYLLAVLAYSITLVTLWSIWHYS
Description: as §1
(§5) The construction of the 5-HT3A-glvM3M4 chimera with the 5-HT3A M3M4 loop replaced by the GLIC heptapeptide M3M4 loop (SQPARAA) was described previously. Point mutations, alanine and Gly-Ser-Ala insertions into the 5-HT3A-ΔM3M4 construct were generated with the Quikchange site directed mutagenesis procedure (Stratagene, La Jolla, CA). The entire coding region of all mutant constructs was verified by DNA sequencing (Albert Einstein College of Medicine DNA Sequencing Facility). The pXOON plasmid was linearized using NheI and capped mRNA prepared with T7 RNA polymerase (mMessage mMachine, Ambion, Austin, TX).
(§6) Use of Xenopus laevis in this study was carried out in strict accordance with the recommendations in the Guide for the Care and Use of Laboratory Animals of the National Institutes of Health. The protocol was approved by the Albert Einstein College of Medicine Animal Care and Use Committee (Protocol Number: 20081201). All surgery was performed under tricaine anesthesia, and all efforts were made to minimize suffering. Oocyctes were harvested from Xenopus (Nasco Science, Fort Atkinson, WI) anesthetized with 0.15% tricaine. Oocyctes were defolliculated by incubation in 2 mg ml^−1 Type 1A collagenase (Sigma-Aldrich, St. Louis, MO) in OR2 (85 mM NaCl, 2 mM KCl, 1 mM MgCl2, and 5 mM HEPES; pH adjusted to 7.5 with NaOH) for a 60 or 75 min. Oocytes were washed in OR2 and stored at 16°C in SOS medium: 100 mM NaCl, 2 mM KCl, 1 mM MgCl2, 1.8 mM CaCl2 5 mM HEPES, pH 7.5 with 100 IU ml^−1 penicillin, 100 µg ml^−1 streptomycin, and 250 ng ml^−1 amphotericin B (Invitrogen, Carlsbad, CA) and 5% horse serum (Sigma-Aldrich). 24 hrs following isolation, oocyctes were injected with 23 nl (2.3 ng) of mRNA and were kept in SOS media for 2–5 d at 16°C.
(§7) Currents were recorded under two-electrode voltage clamp from oocytes 2–5 d post-injection as described previously. […] The perfusion chamber volume was 200 µl. […]
as §4

[3] = molecular target: T3, 5-HT3A construct with single proline in place of the single alanine (Mus musculus, UniProt P23979, DELINS338-452P); assay: Two-electrode voltage clamp, oocytes expressing single proline loop construct; conditions: Xenopus oocytes, data not shown
T3 construct: expressed in transfected cells; host or cells: Xenopus laevis oocytes injected with mRNA
Description: as §1, §2, §3, §4

[4] = molecular target: T4, 5-HT3A M3M4 loop AAPARAA construct (Mus musculus, UniProt P23979); assay: Two-electrode voltage clamp, oocytes expressing AAPARAA loop construct; conditions: 10 µM 5-HT, Xenopus oocytes
T4 construct: expressed in transfected cells; host or cells: Xenopus laevis oocytes injected with mRNA
Description: as §1, §2, §3, §4

[5] = molecular target: T5, 5-HT3A-A2 (M3M4 loop replaced by two alanines) (Mus musculus, UniProt P23979, DELINS338-452AA); assay: Two-electrode voltage clamp, oocytes expressing 5-HT3A-A2
T5 construct: expressed in transfected cells; host or cells: Xenopus laevis oocytes injected with mRNA
T5 sequence (P23979 with tags, fused parts or gaps isoform P23979-2 DELINS338-452AA limits assumed): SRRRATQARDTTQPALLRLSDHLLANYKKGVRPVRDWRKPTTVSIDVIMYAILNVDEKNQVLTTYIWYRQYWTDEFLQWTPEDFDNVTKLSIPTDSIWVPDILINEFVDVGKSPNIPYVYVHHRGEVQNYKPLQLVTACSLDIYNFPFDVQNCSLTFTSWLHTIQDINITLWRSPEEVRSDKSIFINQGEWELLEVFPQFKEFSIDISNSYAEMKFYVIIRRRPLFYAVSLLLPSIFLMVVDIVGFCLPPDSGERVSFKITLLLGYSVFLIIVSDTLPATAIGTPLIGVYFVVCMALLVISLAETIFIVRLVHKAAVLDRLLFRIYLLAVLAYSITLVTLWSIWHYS
Description: as §1, §5, §6, §7, §4

[6] = molecular target: T6, 5-HT3A M3M4 loop GSAGSA mutant (Mus musculus, UniProt P23979); assay: Two-electrode voltage clamp, oocytes expressing GSAGSA M3M4 mutant; conditions: 10 µM 5-HT, Xenopus oocytes
T6 construct: expressed in transfected cells; host or cells: Xenopus laevis oocytes injected with mRNA
Description: as §1, §2, §3, §4

T4 sequence (P23979 with tags, fused parts or gaps): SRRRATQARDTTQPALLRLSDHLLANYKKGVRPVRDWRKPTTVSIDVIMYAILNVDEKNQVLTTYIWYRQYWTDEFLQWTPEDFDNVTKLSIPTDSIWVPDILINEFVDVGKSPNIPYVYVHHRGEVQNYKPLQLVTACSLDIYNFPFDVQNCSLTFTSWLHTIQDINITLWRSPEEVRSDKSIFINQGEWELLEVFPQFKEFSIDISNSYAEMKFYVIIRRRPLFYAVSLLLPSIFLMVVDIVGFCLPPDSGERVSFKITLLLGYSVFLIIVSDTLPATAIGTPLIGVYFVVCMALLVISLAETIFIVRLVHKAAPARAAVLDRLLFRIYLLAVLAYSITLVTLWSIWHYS
T1 sequence (P23979 with tags, fused parts or gaps isoform P23979-2 DELINS338-452GSA limits assumed): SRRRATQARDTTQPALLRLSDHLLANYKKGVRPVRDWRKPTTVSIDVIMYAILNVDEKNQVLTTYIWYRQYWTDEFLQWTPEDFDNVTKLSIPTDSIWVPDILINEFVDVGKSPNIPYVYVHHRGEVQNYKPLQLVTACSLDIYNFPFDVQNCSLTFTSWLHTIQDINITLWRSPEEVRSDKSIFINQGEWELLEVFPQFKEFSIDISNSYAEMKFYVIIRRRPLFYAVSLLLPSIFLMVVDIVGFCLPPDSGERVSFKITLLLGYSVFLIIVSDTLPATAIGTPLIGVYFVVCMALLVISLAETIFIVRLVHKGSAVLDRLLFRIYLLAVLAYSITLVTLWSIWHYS
T3 sequence (P23979 with tags, fused parts or gaps isoform P23979-2 DELINS338-452P limits assumed): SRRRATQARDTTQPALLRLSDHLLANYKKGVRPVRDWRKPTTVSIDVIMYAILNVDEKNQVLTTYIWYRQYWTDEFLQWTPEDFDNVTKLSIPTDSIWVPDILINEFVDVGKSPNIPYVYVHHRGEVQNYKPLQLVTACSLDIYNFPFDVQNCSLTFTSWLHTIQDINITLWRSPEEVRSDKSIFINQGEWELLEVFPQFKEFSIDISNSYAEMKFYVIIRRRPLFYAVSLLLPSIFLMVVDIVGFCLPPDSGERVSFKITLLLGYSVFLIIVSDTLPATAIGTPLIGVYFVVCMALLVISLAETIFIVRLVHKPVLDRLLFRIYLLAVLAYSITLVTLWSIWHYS
T6 sequence (P23979 with tags, fused parts or gaps isoform P23979-2 limits assumed, change not shown): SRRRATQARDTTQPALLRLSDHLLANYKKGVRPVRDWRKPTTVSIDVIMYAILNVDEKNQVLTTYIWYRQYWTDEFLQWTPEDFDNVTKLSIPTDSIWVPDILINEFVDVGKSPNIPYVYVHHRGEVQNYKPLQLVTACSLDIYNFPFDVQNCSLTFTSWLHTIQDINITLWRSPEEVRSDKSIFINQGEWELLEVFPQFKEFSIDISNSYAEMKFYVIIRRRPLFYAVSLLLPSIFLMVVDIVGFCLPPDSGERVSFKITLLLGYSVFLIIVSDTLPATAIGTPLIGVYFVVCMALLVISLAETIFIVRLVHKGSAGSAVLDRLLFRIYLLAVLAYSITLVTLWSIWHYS

For `NCCc1c[nH]c2ccc(O)cc12` [5-HT, 5-hydroxytryptamine], which 5-HT induced current [1] is on record?
The 5-HT induced current was 50±12 nA.

What about the “10–90% Activation rise time” value ([2]; 10 µM 5-HT) of the same compound?
The value was 1055 ± 17 ms.

And the “Desensitization time constant τ” value ([2]; initial 10 µM 5-HT application, may be limited by solution exchange)?
The value was 7 ± 1 s.

What about the “Imax (peak current)” value ([2]; initial application of 10 µM 5-HT, Xenopus oocytes, -60 mV) of the same compound?
The value was 1800±380 nA.

And the “Current induced by subsequent 5-HT application” value ([2]; subsequent 5-HT application 360 s later)?
The value was 159±5 nA.

What about the 5-HT induced current [3] of the same compound?
Its 5-HT induced current is “neither construct generated any 5-HT induced currents”.

And the “Channel function (5-HT induced current)” value [4]?
The value was “non-functional channels”.

And the “nH (Hill coefficient)” value [5]?
The value was 2.0±0.3.

What about the “10–90% Activation rise time” value ([5]; 10 µM 5-HT) of the same compound?
The value was 617 ± 32 ms.

And the “Imax (peak current)” value ([5]; 10 µM 5-HT, Xenopus oocytes, -60 mV)?
Its value is 6900±260 nA.

And the “Desensitization time constant τ” value ([5]; prolonged 10 µM 5-HT)?
The value was 43 ± 4 s.

And the 5-HT induced current [6]?
The 5-HT induced current was 730±45 nA.
